How the values were obtained:
subcutaneous 4T1 tumors = assay: Antitumor efficacy and safety in subcutaneous 4T1 tumor model; assay type: in vivo; conditions: 4T1 model, iv 10.0 mg·kg^–1 PTX equivalent, five doses
Description: For pharmacodynamic evaluation, female Balb/c mice (18–22 g, n = 6 per group) bearing subcutaneous 4T1 tumors (approximately 50 mm^3) received intravenous injections every other day for five doses at 10.0 mg·kg^–1 (PTX equivalent). Tumor volume and body weight were monitored daily until day 14, when tumors were excised and photographed. At study termination (day 14), major organs (heart, liver, spleen, lungs, and kidneys) were collected from these mice. The organs were fixed in 4% paraformaldehyde, dehydrated with ethanol, and cleared with xylene. Afterward, the tissues were embedded in paraffin wax and sectioned after dipping wax operation at 60 °C. The sections were then stained with hematoxylin and eosin for histological examination.

Stability in rat plasma = assay type: in vitro ADME
Description: For plasma stability studies, a PTP or PTP@PEG dispersion (1.2 mg·mL^–1, PTP-equivalent) was diluted with plasma to a final concentration of 100.0 μg·mL^–1. Plasma was obtained from male rat blood by centrifugation (1600 × g, 15 min). Aliquots (100 μL each) were incubated at 37 °C with agitation at 100 rpm, and samples were collected at designated time points in triplicate. Proteins were precipitated by adding 200 μL acetonitrile, followed by vortex mixing and centrifugation at 17 000 rpm and 4 °C for 30 min. The resulting supernatants were analyzed by HPLC.

[1] = Serum biochemistry safety assessment; assay type: in vivo, Balb/c mice; conditions: mice, iv 10 mg·kg^–1 PTX equivalent, q.o.d. × 5, day 10; PTP versus PTP@PEG
Description: In a related safety assessment, female Balb/c mice (18–22 g, n = 3) were fasted for 12 h, then treated intravenously with either 5% G, PTX solution, PTP, or PTP@PEG using the previously described dosing regimen (10 mg·kg^–1 PTX equivalent, q.o.d. × 5). On day 10, blood was collected and then processed to obtain serum by centrifugation (2000 rpm, 10 min, 4 °C). Serum samples were subsequently analyzed for biochemical markers using a Chemray 240 automated analyzer (Rayto Life and Analytical Sciences Co., Ltd., China).

[2] = Biodistribution in 4T1 tumor-bearing mice; assay type: in vivo, Balb/c mice; conditions: iv 10.0 mg·kg^–1
Description: For plasma samples, 50 μL of plasma was mixed with 100 μL of a docetaxel acetonitrile solution (15 ng·mL^–1) for protein precipitation. The mixture was vortexed and then centrifuged at 4 °C, 17 000 rpm for 30 min. For tissue samples, mice were euthanized at specified time points, and tissues were harvested and rinsed with saline. Two kidneys, the entire heart, spleen, lung, tumor, and 150–200 mg of liver were placed in grinding tubes. Saline was added at a ratio of 1:5 (m/v), and the tissues were ground using a freezing grinder (Jingxin, China) at 4 °C. Next, 100 μL of docetaxel acetonitrile solution (15 ng·mL^–1) was added to 50 μL of the tissue homogenate. […] The supernatants for both plasma and tissue samples were analyzed by LC-MS as described below.
The concentrations of PTP and PTX in plasma and tissue samples were determined using liquid chromatography–mass spectrometry (LC-MS) with a G6470A system (Agilent, USA) equipped with a C18 column (2.1 × 100 mm, 2.7 μm, Agilent, USA). […]
Pharmacokinetic features were evaluated in Sprague–Dawley rats (200–300 g, n = 6 per group) following a single intravenous administration of PTX solution (1.0 mg·mL^–1), PTP (1.2 mg·mL^–1), or PTP@PEG (1.2 mg·mL^–1) at a dose equivalent to 3.0 mg·kg^–1 PTX. […] Biodistribution was assessed in female Balb/c mice (18–22 g; n = 6 per group) bearing subcutaneous 4T1 tumors (target volume 200–300 mm^3). […]

[3] = Surface tension measurement / critical aggregation concentration; assay type: physicochemical
Description: Surface tension measurements were conducted at 25 °C using a drop shape analyzer (DSA30S; Kruss, Germany). Starting with a 5.0 mg·mL^–1 PTP dispersion, serial dilutions were prepared to obtain a range of lower concentrations. Following overnight assembly, the PTP dispersion was drawn into a syringe (HENKE-JECT, Germany), and a droplet was suspended from the needle tip. The outer diameter of the needle (1.825 mm) served as the reference for image analysis. Images of the droplet were captured, and the surface tension was calculated using the Young–Laplace equation based on the droplet’s shape.

With `CC(=O)O[C@H]1C(=O)[C@@]2(C)[C@H]([C@H](OC(=O)c3ccccc3)[C@]3(O)C[C@H](OC(=O)[C@H](OC(=O)CCP(=O)(O)O)[C@@H](NC(=O)c4ccccc4)c4ccccc4)C(C)=C1C3(C)C)[C@]1(OC(C)=O)CO[C@@H]1C[C@@H]2O` [PTP, PTX-2’–OOC-P] the “safety: body weight and renal histology” value (subcutaneous 4T1 tumors) was “renal inflammation”, the “degradation faster than PTP@PEG” value (Stability in rat plasma; rat plasma, 37 °C) was 1.2 fold and the “degradation rate constant (k) in plasma” value (Stability in rat plasma; rat plasma, 37 °C, 100 μg·mL^–1 PTP-equivalent) was 0.23 h^–1. The parent compound left (Stability in rat plasma; rat plasma, 37 °C, after 10 h) was 10.4%, the degraded in plasma (Stability in rat plasma; within 10 h, 100.0 μg·mL^–1) was “approximately 90%” and the “blood urea nitrogen (BUN) and creatinine (CREA) levels” value [1] was “comparable”. For the same compound, the “biodistribution, organs of accumulation” value [2] was “primarily accumulated in the liver and kidney”, the “water–air surface tension (plateau)” value ([3]; above 1.0 mg·mL^–1) was “approximately 55.0 mN·m^–1” and the critical aggregation concentration ([3]; water, 25 °C, inflection of surface tension versus log concentration) was 0.6 mg·mL^–1.
